Source: patent US20050239804A1, “Method for improved chemical synthesis of guanidinium alkaloids” (The Regents of the University of California, priority 1999, published 2005)

Assays:
60 tumor cell lines = assay: NCI DTP Human Tumor Cell Line Screen (60 tumor cell lines, Sulforhodamine B assay); assay type: cell-based; details: 48 h exposure, five 10-fold dilutions
Excerpt: This example describes the in vitro screening of 60 tumor cell lines against the compounds of the invention: ptilomycalin A, isocrambescidin 800 trihydrochloride, triacetylcrambescidin 800 chloride, crambescidin 657 hydrochloride, crambescidin 800 trihydrochloride, triacetylisocrambescidin 800 chloride, and 13-epiptilomycalin A to determine anti-tumor activity.
The screening methods utilized the National Cancer Institute (NCI) DTP Human Tumor Cell Line Screen protocol as described by Monks et al., J. Nat'l. Cancer Inst. 83:757-766 (1991); and Boyd In “Cancer Drug Discovery and Development, Vol; 2; Drug Development; Preclinical Screening, Clinical Trial and Approval, Humana Press, 1997, pp 23-43. The origins and processing of the cell lines used are described in Alley et al., Cancer Res., 1988, 48:589-601; Shoemaker et al., Prog. Clin. Biol. Res., 1988, 276:265-286; and Stinson et al., Proc. Am. Assoc. Cancer Res., 1989, 30:613.
In brief, in the screen protocol, cell suspensions were diluted depending on cell type and the expected target cell density (approximately 5000-40,000 cells per well) into a 96 well microtiter plate. Inoculates were preincubated for 24h at 37 °C for stabilization. Dilutions at twice the intended test concentrations were added at time zero in 100 μL aliquots to the microtiter plate wells. Test compounds were evaluated at five 10-fold dilutions. Routine test concentrations have the highest well concentration at 10E-4M, but for the standard agents, the highest well concentration used depended on the agent used. Incubations lasted 48 hours in 5% CO2 atmosphere and 100% humidity. The cells were assayed by Sulforhodomine B assay as described by Rubenstein et al., JNCI, 1990, 82:1113-1118 and Skehan et al., JNCI, 1990, 82: 1107-1112. Optical densities were read with a plate reader and the data processed using a microcomputer into special concentration parameters.
NCI renamed the IC50 value, the concentration that causes 50% growth inhibition the “GI50” value to emphasize the correction for the cell count at time zero; thus GI50 is the concentration of test drug where 100×(T−T0)/(C−T0)=50 (Boyd et al., In Cytotoxic Anticancer Drugs: Models and Concepts for Drug Discovery and Development, Vieriote. et al., Eds., Kluwer Academic, Hingham, Mass., 1992, pp 11-34; and Monks et al., JNCI, 1991, 83, 757-766. The optical density of the test well after a 48 hr period of exposure to the test compound is “T”, the optical density at time zero is TO and the control optical density is “C.” The “50” is called the GI50PRCNT, a T/C-like parameter that can have values from +100 to −100. The GI50 also measures the growth inhibitory power of the test compound. The TGI is the concentration of test drug where 100×(T−T0)/(C−T0)=0. Thus, the TGI signifies a cytostatic effect. The LC50 which signifies a cytotoxic effect, is the concentration of the test compound where 100×(T−T0)/T0=−50. The control optical density is not used in the calculation of LC50.
These concentration parameters are interpolated values. The concentrations giving G150PRCNT values above and below the reference values (e.g. 50 for G150) are used to make interpolations on the concentration axis. […] For mean graph purposes, the value assumed for the G150 in such a case is the highest concentration tested (HICONC). […] In this case, the lowest concentration tested is used for the G150. Corresponding approximations are made for the TGI and for the LC50.
The results of the tumor cell screening are shown in the mean graphs of 56-62. […]

L1210 = details: cited from earlier work
P388 = details: cited from earlier work
Candida albicans = details: cited from earlier work
[1] = test system: Herpes simplex virus, type 1 (HSV-1); details: at a concentration of 0.2 μg/mL; cited from earlier work
brain Na+, K+-ATPase = details: read-out: inhibition of brain Na+, K+-ATPase (IC50); cited from earlier work
[2] = target: T1, Ca2+-ATPase from skeletal sarcoplasmic reticulum (Homo sapiens, UniProt O14983); details: read-out: inhibition of Ca2+-ATPase from skeletal sarcoplasmic reticulum (IC50); cited from earlier work
T1 construct: from tissue; host or cells: skeletal muscle sarcoplasmic reticulum
T1 sequence (O14983 whole entry): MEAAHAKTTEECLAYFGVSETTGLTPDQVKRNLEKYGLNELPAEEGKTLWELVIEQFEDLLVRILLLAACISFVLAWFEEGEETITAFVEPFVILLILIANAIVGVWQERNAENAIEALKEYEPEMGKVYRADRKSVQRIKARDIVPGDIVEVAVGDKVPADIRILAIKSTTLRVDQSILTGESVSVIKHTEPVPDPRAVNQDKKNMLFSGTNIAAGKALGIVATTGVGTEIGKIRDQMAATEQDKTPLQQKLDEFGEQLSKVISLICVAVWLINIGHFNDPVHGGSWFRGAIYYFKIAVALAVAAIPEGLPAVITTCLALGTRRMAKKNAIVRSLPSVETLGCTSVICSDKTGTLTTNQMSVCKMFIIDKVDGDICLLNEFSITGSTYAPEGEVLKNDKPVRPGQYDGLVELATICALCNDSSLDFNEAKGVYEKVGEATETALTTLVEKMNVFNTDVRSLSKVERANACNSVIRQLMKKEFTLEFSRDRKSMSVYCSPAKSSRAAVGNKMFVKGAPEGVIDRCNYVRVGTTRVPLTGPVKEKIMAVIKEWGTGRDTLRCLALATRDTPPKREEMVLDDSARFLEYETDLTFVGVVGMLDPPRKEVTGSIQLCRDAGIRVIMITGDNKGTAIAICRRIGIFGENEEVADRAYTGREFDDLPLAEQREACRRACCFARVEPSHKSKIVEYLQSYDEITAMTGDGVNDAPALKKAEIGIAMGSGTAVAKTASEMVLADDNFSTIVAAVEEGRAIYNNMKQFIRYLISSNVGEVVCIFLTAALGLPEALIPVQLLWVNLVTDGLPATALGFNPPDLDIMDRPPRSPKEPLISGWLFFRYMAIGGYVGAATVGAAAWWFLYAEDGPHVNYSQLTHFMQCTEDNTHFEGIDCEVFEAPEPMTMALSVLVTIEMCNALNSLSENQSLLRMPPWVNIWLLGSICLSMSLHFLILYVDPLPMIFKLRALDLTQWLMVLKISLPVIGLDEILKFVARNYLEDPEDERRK

Peracetyl-13,14,15-Isocrambescidin 800 Hydrochloride [triacetylisocrambescidin 800 chloride]
effect on tumor cell lines in the NCI screen (mean graphs of GI50, TGI, LC50; summary in words) (60 tumor cell lines): lesser effect

13,14,15-Isocrambescidin 800 Trihydrochloride
effect on tumor cell lines in the NCI screen (mean graphs of GI50, TGI, LC50; summary in words) (60 tumor cell lines): lesser effect | cytotoxicity to L-1210 cells relative to other crambescidins (L1210; L-1210 cells, in words): less cytotoxic to L-1210 cells than other crambescidins

CC[C@H]1C=CCC[C@@]2(C[C@@H]3CC[C@@H]4[C@H](C(=O)OCCCCCCCCCCCCCCCC(=O)N(CCCN)C[C@@H](O)CCN)[C@]5(CCC[C@@H](C)O5)NC(=N2)N34)O1.Cl.Cl.Cl [crambescidin 800 trihydrochloride, Crambescidin 800 Trihydrochloride]
effect on tumor cell lines in the NCI screen (mean graphs of GI50, TGI, LC50; summary in words) (60 tumor cell lines): certain cancer cell lines are sensitive

CCC1C=CCCC2(CC3CCC4C(C(=O)OCCCCCCCCCCCCCCCC(=O)N(CCCN)CCCCN)C5(CCCC(C)O5)NC(=N2)N34)O1 (centres unmarked) [Ptilomycalin A]
effect on tumor cell lines in the NCI screen (mean graphs of GI50, TGI, LC50; summary in words) (60 tumor cell lines): certain cancer cell lines are sensitive | cytotoxicity against P388 (IC50) (P388): 0.1 µg/mL | cytotoxicity against L1210 (IC50) (L1210; L1210): 0.4 µg/mL | antifungal activity against Candida albicans (MIC) (Candida albicans): 0.8 µg/mL | antiviral activity against Herpes simplex virus, type 1 (HSV-1) [1]: considerable antiviral activity | IC50 (brain Na+, K+-ATPase): 2 µM | IC50 [2]: 10 µM

Peracetylcrambescidin 800 [triacetylcrambescidin 800 chloride]
effect on tumor cell lines in the NCI screen (mean graphs of GI50, TGI, LC50; summary in words) (60 tumor cell lines): certain cancer cell lines are sensitive

crambescidin 657 hydrochloride
effect on tumor cell lines in the NCI screen (mean graphs of GI50, TGI, LC50; summary in words) (60 tumor cell lines): certain cancer cell lines are sensitive

13-epiptilomycalin A
effect on tumor cell lines in the NCI screen (mean graphs of GI50, TGI, LC50; summary in words) (60 tumor cell lines): certain cancer cell lines are sensitive
